Assays:
[1] = Retrospective review of adverse drug reaction (leukopenia, diarrhea, severe toxicity) in patients given irinotecan chemotherapy, correlated with UGT1A1 genotype; assay type: in vivo, Japanese patients; conditions: for odds ratio of severe toxicity: logistic regression
Source text: The subjects were Japanese patients who had received irinotecan administration in their chemotherapies from July 1994 to June 1999. For confirming the security of the patients, each patient was primarily ensured to have an adequate bone marrow function before the use of irinotecan: a leukocyte count of 3×10^9/liter or more, and a platelet count of 100×10^9/Iiter or more. In addition, the patients who had evidence of watery diarrhea, paralytic ileus, pulmonary interstitial pneumonia or fibrosis, massive ascites or pleural effusion, apparent jaundice, or anamnesis of hypersensitivity to irinotecan were excluded from the irinotecan use. As a result, 118 patients were used as a subject of this Example.
For confirming the adaptability to irinotecan, the complete blood count, platelet count and serum chemistry were assessed at least once a week. And bilirubin levels were always measured.
We retrospectively reviewed the clinical records including patients' characteristics (e.g. age, gender and the like), the dosage and schedule of irinotecan administration, the record of use of other drugs or radiotherapy, and observed adverse drug reaction caused by irinotecan (infusion). We counted the number of days when the patients received granulocyte colony stimulating factors (G-CSFs) or loperamide hydrochloride, the latter of which is commonly prescribed for irinotecan-induced diarrhea in Japan. Prophylactic administration of G-CSF prevented the apparent onset of neutropenia. Since the dose limiting toxicity of irinotecan is known to result in leukopenia and diarrhea, we defined as “severe toxicity” as leukopenia of grade 4 (0.9×10^9/liter) and the diarrhea of grade 3 or worse (grade 3 is for the watery diarrhea for 5 days or more; grade 4, the diarrhea with hemorrhagic or dehydration as classified in accordance with the Japan Society for Cancer Therapy criteria). No other adverse drug reactions were included in this example because they would be influenced by miscellaneous patients' backgrounds. The Serum total bilirubin levels were recorded with the scores just prior to irinotecan administration along with the highest of those after initiation of the therapy.
Blood was sampled from each patient (118 samples) and their genotypes were analyzed after irinotecan administration in each patient. […]
We analyzed the following variant sequences for each genomic DNA (see Fig. I): a two-extra-nucleotide (TA) insertion within the TATA box resulting in the sequence (TA)7TAA at positions −39 to −53, whose type is referred to as UGT1A1 *28; (Monaghan, G., Ryan, M., Seddon, R., Hume, R., and Burchell, B., Lancet, 347: 578-581, 1996, Bosma, P. J. et al., N. Engi. J. Med., 333: 1171-1175, 1995); a transition at codon 71 in exon I (from (G) to (A) at +211 locating in the downstream region from the initial site of the transcription) that changes glycine to arginine (represented by G71 R, whose type is referred to as UGT1A1*6); a transversion at codon 229 in exon I that alters proline to glutamine (represented by P229Q, whose type is referred to as UGT1A1*27); a trarisversion at codon 367 from (C) to (G) at position +1099 in exon 4 that converts arginine to glycine (represented by R367G, whose type is referred to as UGT1A1*29); and a transversion (+1456, T to G) at codon 486 in exon 5 that transforms tyrosine (Y) into aspartic acid (D) (represented by Y486D, whose type is referred to as UGTIA1*7). […]

[2] = out of 1245 patients during period of clinical trials; cited from earlier work

## CCc1c2c(nc3ccc(OC(=O)N4CCC(N5CCCCC5)CC4)cc13)-c1cc3c(c(=O)n1C2)COC(=O)[C@]3(O)CC [irinotecan]
[1]; UGT1A1*6, 95% CI 0.15-1.61, P>0.2
  odds ratio of severe toxicity: 0.55
[1]; all patients heterozygous for UGT1A1*27
  patients who experienced severe toxicity: 3 patients
[1]; genotype heterozygous or homozygous for UGT1A1*28, 95% CI 1.98-13.96, P<0.001
  odds ratio of severe toxicity: 5.21
[1]; of 118 patients given irinotecan, 92 did not
  patients who experienced severe toxicity (leukopenia grade 4 and/or diarrhea grade 3 or worse): 26 patients
[1]; possession of UGT1A1*28, multiple logistic regression with gender and chemotherapy regimen (FIG. 5)
  increase of severe toxicity of irinotecan: 7 fold
[2]
  deaths attributed to adverse drug reactions: 55 patients

— US20110151474A1, “METHOD OF ESTIMATING THE RISK OF EXPRESSION OF ADVERSE DRUG REACTION CAUSED BY THE ADMINISTRATION OF A COMPOUND, WHICH IS EITHER METABOLIZED PER SE BY UGT1A1 ENZYME OR WHOSE METABOLIC INTERMEDIATE IS METABOLIZED BY THE ENZYME” (DAIICHI PURE CHEMICALS CO ., LTD, priority 2000, published 2011)
